From patent USRE43879E1, “Use of the dextrogyral enantiomer of milnacipran for the preparation of a drug” (priority 2003, dated 2012)

Assays:
[1] = system: primary rat hepatocytes; assay: Cytotoxicity test (MTT-assay) on primary rat hepatocytes; type: cell-based; conditions: 16 hours
Description: The […] and […] compounds, enantiomers of the racemic molecule […], as well as clomipramine, a reference product, (coded […] in the study) were assessed in the present study. The two enantiomers, […] and […], were first assessed in a preliminary cytotoxicity text (MTT-assay) on primary rat hepatocytes, in order to select the three concentrations to be used in the final test. The cells used in the study (preliminary MTT-assay of cytotoxicity and the main test) are cryopreserved hepatocytes from Sprague-Dawley rats in primary culture (batches Hep184005 and Hep184006-Biopredic), cultured under standard conditions. […] Formazan is solubilised in an organic solvent and the solution obtained can be measured by spectrophotometry. The absorbance measured is proportional to the number of surviving cells. The cells are put into contact with the product to be tested at […] (0-1-10-25-50 and 100 μM) for 16 hours. After this period of exposure, an MTT solution (0.5 mg/ml in the incubation medium of the primary hepatocytes) is added for 3 hours. After solubilisation of the formazan crystals, the multi-well plates are read with a spectrophotometer at 500 nm in order to determine the percentage of cell viability. These assays were performed in triplicate on primary rat hepatocytes exposed for 16 hours.

[2] = system: primary rat hepatocytes; assay: Safe-Hit genomic test of predictive toxicology (Toxicity Index) on primary rat hepatocytes; type: cell-based; conditions: 16 h
Description: After treatment of the primary rat hepatocytes in culture, the RNA was extracted in order to generate labelled complementary-DNA probes which were then hybridised on a membrane containing 682 alternatively-spliced fragments specific to cell stress. A Toxicity Index was obtained for each of the products by comparing the hybridisation profile of the treated cells with that of the untreated cells.
Safe-Hit allows molecules within a chemical series to be ranked according to a Toxic Index, determined after the following basic steps (systematically performed in duplicate for each product): • treatment of the cells lines with the various products at three different concentrations, deduced from a preliminary cytotoxicology test (MTT-assay): a reference concentration corresponding to 80% cell viability, a concentration 10-fold higher—when possible—and a concentration 10-fold lower, • preparation of total RNA and of the corresponding radio-labelled cDNA probes, • hybridisation of the cDNA probes: the Safe-Hit macroarray contains 682 independent clones, corresponding to alterations in gene splicing induced by overexpression of WTp53 (p53 is the most ubiquitous “mediator” of cell stress, chosen for the development of this methodology), • acquisition and determination of the Toxicity Index. 4.1.2. Cells
The cells used in the study (preliminary MTT-assay of cytotoxicity and the main test) are cryopreserved hepatocytes from Sprague-Dawley rats in primary culture (batches Hep184005 and Hep184006-Biopredic), cultured under standard conditions.
The cells are seeded and cultured for 16 hours with each product, at the three concentrations chosen on the basis of the preliminary MTT-assay; two controls (untreated cells in solvent alone) are added to the series.
The results of the two Safe-Hit analyses are then compared and combined to assess the potential toxicity of the various compounds tested. Two parameters that can be modified by the user are involved in the calculation of the Toxicity Index: • Background Threshold (BT) smoothes out weak signals, close to background noise and not attributable to significant gene expression. […] The value of this parameter is usually 2 or less than 2 in order to obtain relevant results. […]
Toxicity Indices (TI) were determined as described above. […] Two separate analyses were performed using two levels of differentiation (Induction Factor-IF) in relation to the untreated controls: • a factor of at least 1.7 in relation to the untreated controls. This factor of 1.7 times represents the weakest value that allows an index not to be obtained in relation to the two untreated controls. • a factor of at least 2 in relation to the untreated controls. This factor of 2 times allows the most robust signals to be taken into account. 4.3.1. Induction Factor of 1.7 in Relation to Untreated Control (Table 7)

CN(C)CCCN1c2ccccc2CCc2ccc(Cl)cc21 [C218, clomipramine]
Toxicity in MTT-assay ([1]; 25 μM): no toxicity was observed
Cell viability in MTT-assay ([1]; 50 μM): greater than 80%
Cytotoxicity / cell viability in MTT-assay ([1]; 100 μM): no cell viability was observed
Clone A09 (H. sapiens mitochondrion, 12S), regulation factor vs untreated control ([2]; 1 μM): 2.90
Clone AA11 (H. sapiens Repeat sequence AluJb fragment inserted into a cDNA coding for an unknown protein), regulation factor vs untreated control ([2]; 1 μM): 0.38
Clone AC13 (H. sapiens 7S RNA L gene), regulation factor vs untreated control ([2]; 1 μM): 0.28
Clone C01 (H. sapiens mitochondrion, 16S), regulation factor vs untreated control ([2]; 1 μM): 1.93
Clone T08 (H. sapiens mRNA for KIAA1185 protein), regulation factor vs untreated control ([2]; 1 μM): 0.35
Clone U04 (H. sapiens translation initiation factor elF-2alpha mRNA), regulation factor vs untreated control ([2]; 1 μM): 0.48
Clone X02 (unk), regulation factor vs untreated control ([2]; 1 μM): 0.36
Clone X06 (H. sapiens Genomic sequence from 9q34), regulation factor vs untreated control ([2]; 1 μM): 0.23
Clone Z13 (unk), regulation factor vs untreated control ([2]; 1 μM): 0.34
Clone A09 (H. sapiens mitochondrion, 12S), regulation factor vs untreated control ([2]; 10 μM): 2.23
Clone AA11 (H. sapiens Repeat sequence AluJb fragment inserted into a cDNA coding for an unknown protein), regulation factor vs untreated control ([2]; 10 μM): 0.27
Clone AC13 (H. sapiens 7S RNA L gene), regulation factor vs untreated control ([2]; 10 μM): 0.16
Clone B20 (H. sapiens chromosome 19, BAC CIT-B-191n6), regulation factor vs untreated control ([2]; 10 μM): 0.14
Clone B22 (H. sapiens Genomic sequence from 17), regulation factor vs untreated control ([2]; 10 μM): 0.17
Clone C01 (H. sapiens mitochondrion, 16S), regulation factor vs untreated control ([2]; 10 μM): 1.82
Clone E05 (H. sapiens DNA sequence from clone 740A11 on chromosome Xq22.2-23, part of COL4A5 gene), regulation factor vs untreated control ([2]; 10 μM): 0.22
Clone E21 (H. sapiens ribosomal protein S14 gene), regulation factor vs untreated control ([2]; 10 μM): 0.56
Clone M12 (H. sapiens mRNA; cDNA DKFZp564C1563), regulation factor vs untreated control ([2]; 10 μM): 0.16
Clone T08 (H. sapiens mRNA for KIAA1185 protein), regulation factor vs untreated control ([2]; 10 μM): 0.14
Clone U04 (H. sapiens translation initiation factor elF-2alpha mRNA), regulation factor vs untreated control ([2]; 10 μM): 0.22
Clone X02 (unk), regulation factor vs untreated control ([2]; 10 μM): 0.24
Clone X05 (H. sapiens microsomal epoxide hydrolase (EPHX) gene), regulation factor vs untreated control ([2]; 10 μM): 0.15
Clone X06 (H. sapiens Genomic sequence from 9q34), regulation factor vs untreated control ([2]; 10 μM): 0.15
Clone Z13 (unk), regulation factor vs untreated control ([2]; 10 μM): 0.29
Clone A09 (H. sapiens mitochondrion, 12S), regulation factor vs untreated control ([2]; 100 μM): 2.14
Clone AA11 (H. sapiens Repeat sequence AluJb fragment inserted into a cDNA coding for an unknown protein), regulation factor vs untreated control ([2]; 100 μM): 0.31
Clone AA13 (H. sapiens 18S rRNA gene), regulation factor vs untreated control ([2]; 100 μM): 1.79
Clone AC13 (H. sapiens 7S RNA L gene), regulation factor vs untreated control ([2]; 100 μM): 0.28
Clone B20 (H. sapiens chromosome 19, BAC CIT-B-191n6), regulation factor vs untreated control ([2]; 100 μM): 0.27
Clone B22 (H. sapiens Genomic sequence from 17), regulation factor vs untreated control ([2]; 100 μM): 0.32
Clone C01 (H. sapiens mitochondrion, 16S), regulation factor vs untreated control ([2]; 100 μM): 1.91
Clone E01 (H. sapiens mRNA for lipocortin II), regulation factor vs untreated control ([2]; 100 μM): 1.73
Clone E05 (H. sapiens DNA sequence from clone 740A11 on chromosome Xq22.2-23, part of COL4A5 gene), regulation factor vs untreated control ([2]; 100 μM): 0.35
Clone E19 (H. sapiens mitochondrion, cytochrome c oxidase subunit 1), regulation factor vs untreated control ([2]; 100 μM): 1.72
Clone E21 (H. sapiens ribosomal protein S14 gene), regulation factor vs untreated control ([2]; 100 μM): 0.58
Clone F24 (H. sapiens LIM homeobox protein cofactor (CLIM-1) mRNA), regulation factor vs untreated control ([2]; 100 μM): 0.52
Clone G01 (H. sapiens estrogen receptor-related protein (variant ER from breast cancer) mRNA), regulation factor vs untreated control ([2]; 100 μM): 2.04
Clone G05 (H. sapiens mitochondrion, cytochrome c oxidase subunit 1), regulation factor vs untreated control ([2]; 100 μM): 2.02
Clone G09 (H. sapiens mitochondrion, cytochrome b), regulation factor vs untreated control ([2]; 100 μM): 1.76
Clone I18 (H. sapiens 18S rRNA gene), regulation factor vs untreated control ([2]; 100 μM): 1.88
Clone L23 (H. sapiens cDNA NIH_MGC_16 clone IMAGE: 3350241 5′, mRNA sequence), regulation factor vs untreated control ([2]; 100 μM): 1.75
Clone M07 (H. sapiens mitochondrion, cytochrome c oxidase subunit 1), regulation factor vs untreated control ([2]; 100 μM): 1.75
Clone M12 (H. sapiens mRNA; cDNA DKFZp564C1563), regulation factor vs untreated control ([2]; 100 μM): 0.39
Clone Q11 (unk), regulation factor vs untreated control ([2]; 100 μM): 1.92
Clone S01 (Mus muculus TCR beta locus), regulation factor vs untreated control ([2]; 100 μM): 2.98
Clone T08 (H. sapiens mRNA for KIAA1185 protein), regulation factor vs untreated control ([2]; 100 μM): 0.22
Clone U04 (H. sapiens translation initiation factor elF-2alpha mRNA), regulation factor vs untreated control ([2]; 100 μM): 0.37
Clone X02 (unk), regulation factor vs untreated control ([2]; 100 μM): 0.31
Clone X05 (H. sapiens microsomal epoxide hydrolase (EPHX) gene), regulation factor vs untreated control ([2]; 100 μM): 0.24
Clone X06 (H. sapiens Genomic sequence from 9q34), regulation factor vs untreated control ([2]; 100 μM): 0.23
Clone Z13 (unk), regulation factor vs untreated control ([2]; 100 μM): 0.27
Clone Z20 (Homo sapiens cDNA wc44h09, similar to RAS_RELATED PROTEIN RAB-24, mRNA sequence), regulation factor vs untreated control ([2]; 100 μM): 0.57
Number of down-regulated clones (Down) ([2]; Induction Factor 1.7, 1 μM): 7
Number of up-regulated clones (Up) ([2]; Induction Factor 1.7, 1 μM): 2
Toxicity Index (TI, number of signatures) ([2]; Induction Factor 1.7, 1 μM): 9
Number of down-regulated clones (Down) ([2]; Induction Factor 1.7, 10 μM): 13
Number of up-regulated clones (Up) ([2]; Induction Factor 1.7, 10 μM): 2
Toxicity Index (TI, number of signatures) ([2]; Induction Factor 1.7, 10 μM): 15
Toxicity Index (TI, number of signatures) ([2]; Induction Factor 1.7, 50 μM): 28
Number of down-regulated clones (Down) ([2]; Induction Factor 1.7, 100 μM): 15
Number of up-regulated clones (Up) ([2]; Induction Factor 1.7, 100 μM): 13
Toxicity Index (TI, number of signatures) ([2]; Induction Factor 1.7, 100 μM): 28
Number of down-regulated clones (Down) ([2]; Induction Factor 2, 1 μM): 7
Number of up-regulated clones (Up) ([2]; Induction Factor 2, 1 μM): 1
Toxicity Index (TI, number of signatures) ([2]; Induction Factor 2, 1 μM): 8
Number of down-regulated clones (Down) ([2]; Induction Factor 2, 10 μM): 12
Number of up-regulated clones (Up) ([2]; Induction Factor 2, 10 μM): 1
Toxicity Index (TI, number of signatures) ([2]; Induction Factor 2, 10 μM): 13
Toxicity Index (TI, number of signatures) ([2]; Induction Factor 2, 50 μM): 16
Number of down-regulated clones (Down) ([2]; Induction Factor 2, 100 μM): 12
Number of up-regulated clones (Up) ([2]; Induction Factor 2, 100 μM): 4
Toxicity Index (TI, number of signatures) ([2]; Induction Factor 2, 100 μM): 16
